The values that follow come from PubChem BioAssay AID248 (DTP/NCI, 2004).

Structures are written as SMILES. Several values for one entry are separate records, joined by “and”; a condition that tells them apart may be missing. Identical values can stand only once. Toxic doses and inconclusive results are not listed.

The test system of the experiment is L1210 leukemia ip in BDF1 mice, survival T/C. The experiment is described as follows: NCI In Vivo Anticancer Drug Screen. Data for tumor model L1210 Leukemia (intraperitoneal) in B6D2F1 (BDF1) mice. To be noted: endpoint: mean survival time, higher = longer survival. In short, it runs like this: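 Antitumor effect is assessed in tumor-bearing animals. Survival in the compound arm is compared with a vehicle-dosed control arm and expressed as their quotient.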

The mark [1] stands for this setting: dose: 100.0 mg/kg/injection, schedule: Q01DX009 (ip), vehicle: saline with Tween-80.
Where [2] appears, read: dose: 100.0 mg/kg/injection, schedule: Q04DX003 (ip), vehicle: saline with Tween-80.
The mark [3] stands for this setting: dose: 200.0 mg/kg/injection, schedule: Q01DX009 (ip), vehicle: saline with Tween-80.
Where [4] appears, read: dose: 200.0 mg/kg/injection, schedule: Q04DX003 (ip), vehicle: saline with Tween-80.
[5] abbreviates: dose: 400.0 mg/kg/injection, schedule: Q01DX009 (ip), vehicle: saline with Tween-80.
Setting [6] is: dose: 100.0 mg/kg/injection, schedule: Q04DX002 (ip), vehicle: Klucel (hydroxypropylcellulose) (HPC).
The mark [7] stands for this setting: dose: 200.0 mg/kg/injection, schedule: Q04DX002 (ip), vehicle: Klucel (hydroxypropylcellulose) (HPC).
Where [8] appears, read: dose: 400.0 mg/kg/injection, schedule: Q04DX002 (ip), vehicle: Klucel (hydroxypropylcellulose) (HPC).
The mark [9] stands for this setting: dose: 100.0 mg/kg/injection, schedule: Q01DX001 (ip), vehicle: Klucel (hydroxypropylcellulose) (HPC).
The mark [10] stands for this setting: dose: 200.0 mg/kg/injection, schedule: Q01DX001 (ip), vehicle: Klucel (hydroxypropylcellulose) (HPC).
Setting [11] is: dose: 400.0 mg/kg/injection, schedule: Q01DX001 (ip), vehicle: Klucel (hydroxypropylcellulose) (HPC).
Where [12] appears, read: dose: 100.0 mg/kg/injection, schedule: Q01DX009 (ip), vehicle: saline.
The mark [13] stands for this setting: dose: 100.0 mg/kg/injection, schedule: Q04DX003 (ip), vehicle: saline.
[14] abbreviates: dose: 200.0 mg/kg/injection, schedule: Q01DX009 (ip), vehicle: saline.
Where [15] appears, read: dose: 200.0 mg/kg/injection, schedule: Q04DX003 (ip), vehicle: saline.
Where [16] appears, read: dose: 400.0 mg/kg/injection, schedule: Q04DX003 (ip), vehicle: saline.
The mark [17] stands for this setting: dose: 100.0 mg/kg/injection, schedule: Q01DX009 (ip), vehicle: Klucel (hydroxypropylcellulose) (HPC).
[18] abbreviates: dose: 100.0 mg/kg/injection, schedule: Q04DX003 (ip), vehicle: Klucel (hydroxypropylcellulose) (HPC).
Where [19] appears, read: dose: 200.0 mg/kg/injection, schedule: Q01DX009 (ip), vehicle: Klucel (hydroxypropylcellulose) (HPC).
Where [20] appears, read: dose: 200.0 mg/kg/injection, schedule: Q04DX003 (ip), vehicle: Klucel (hydroxypropylcellulose) (HPC).
The mark [21] stands for this setting: dose: 400.0 mg/kg/injection, schedule: Q04DX003 (ip), vehicle: Klucel (hydroxypropylcellulose) (HPC).
The mark [22] stands for this setting: dose: 100.0 mg/kg/injection, schedule: Q01DX001 (ip), vehicle: carboxymethylcellulose (CMC).
Where [23] appears, read: dose: 200.0 mg/kg/injection, schedule: Q01DX001 (ip), vehicle: carboxymethylcellulose (CMC).

In the case of `O=C(NC(=S)Nc1cccc2c(O)cccc12)c1ccc(Cl)cc1Cl`, the T/C reads like this: (dose: 100.0 mg/kg/injection, schedule: Q01DX001 (ip), vehicle: saline with Tween-80) 105 % of control; under setting [1], 98 % of control and 90 % of control; (dose: 100.0 mg/kg/injection, schedule: Q04DX002 (ip), vehicle: saline with Tween-80) 95 % of control and 98 % of control; under setting [2], 103 % of control; (dose: 200.0 mg/kg/injection, schedule: Q01DX001 (ip), vehicle: saline with Tween-80) 103 % of control; under setting [3], 97 % of control and 117 % of control. Also, the T/C is 101 % of control and 106 % of control (dose: 200.0 mg/kg/injection, schedule: Q04DX002 (ip), vehicle: saline with Tween-80); 92 % of control under setting [4]; 106 % of control (dose: 400.0 mg/kg/injection, schedule: Q01DX001 (ip), vehicle: saline with Tween-80); 94 % of control and 98 % of control under setting [5]; 95 % of control and 90 % of control (dose: 400.0 mg/kg/injection, schedule: Q04DX002 (ip), vehicle: saline with Tween-80); 94 % of control (dose: 400.0 mg/kg/injection, schedule: Q04DX003 (ip), vehicle: saline with Tween-80).
For `O=C(O)c1ccc(Cl)cc1F`, the T/C was 97 % of control under setting [6], 108 % of control under setting [7] and 97 % of control under setting [8].
Take `CCOC(=O)CSC(=S)N1CCOCC1`: the T/C under setting [9] is 94 % of control, the T/C under setting [10] is 97 % of control and the T/C under setting [11] was 102 % of control.
`CC(=O)Nc1ccc(/C=N\N=C\c2ccc(NC(C)=O)cc2)cc1`: the T/C was 88 % of control under setting [12]; 100 % of control under setting [13]; 86 % of control under setting [14]; 105 % of control under setting [15]; 100 % of control under setting [16].
In the case of `CCC(=O)NC1=C(N2CC2)C(=O)C(NC(=O)CC)=C(N2CC2)C1=O`, the T/C reads like this: (dose: 0.31 mg/kg/injection, schedule: Q01DX009 (ip), vehicle: Klucel (hydroxypropylcellulose) (HPC)) 121 % of control; (dose: 1.25 mg/kg/injection, schedule: Q01DX001 (ip), vehicle: saline with Tween-80) 115 % of control; (dose: 1.25 mg/kg/injection, schedule: Q01DX001 (ip), vehicle: saline) 108 % of control; (dose: 1.25 mg/kg/injection, schedule: Q01DX009 (ip), vehicle: Klucel (hydroxypropylcellulose) (HPC)) 162 % of control; (dose: 2.5 mg/kg/injection, schedule: Q01DX001 (ip), vehicle: saline) 119 % of control; (dose: 2.5 mg/kg/injection, schedule: Q04DX003 (ip), vehicle: Klucel (hydroxypropylcellulose) (HPC)) 175 % of control. Besides, the T/C runs as follows: (dose: 5.0 mg/kg/injection, schedule: Q01DX001 (ip), vehicle: saline with Tween-80) 167 % of control; (dose: 5.0 mg/kg/injection, schedule: Q01DX009 (ip), vehicle: Klucel (hydroxypropylcellulose) (HPC)) 104 % of control; (dose: 5.0 mg/kg/injection, schedule: Q01DX009 (ip), vehicle: saline) 100 % of control; (dose: 5.0 mg/kg/injection, schedule: Q04DX003 (ip), vehicle: Klucel (hydroxypropylcellulose) (HPC)) 102 % of control; (dose: 10.0 mg/kg/injection, schedule: Q01DX001 (ip), vehicle: saline with Tween-80) 169 % of control; (dose: 10.0 mg/kg/injection, schedule: Q01DX009 (ip), vehicle: saline) 93 % of control. Moreover, the T/C (dose: 10.0 mg/kg/injection, schedule: Q04DX003 (ip), vehicle: Klucel (hydroxypropylcellulose) (HPC)) is 90 % of control.
With `C[n+]1c2ccccc2c(N=[N+]=[N-])c2ccccc21`, the T/C is 98 % of control (dose: 6.25 mg/kg/injection, schedule: Q01DX001 (ip), vehicle: suspension in saline); 98 % of control (dose: 12.5 mg/kg/injection, schedule: Q01DX001 (ip), vehicle: suspension in saline); 97 % of control (dose: 12.5 mg/kg/injection, schedule: Q04DX003 (ip), vehicle: suspension in saline); 98 % of control (dose: 25.0 mg/kg/injection, schedule: Q01DX001 (ip), vehicle: suspension in saline); 95 % of control (dose: 25.0 mg/kg/injection, schedule: Q04DX003 (ip), vehicle: suspension in saline); 105 % of control (dose: 50.0 mg/kg/injection, schedule: Q04DX003 (ip), vehicle: suspension in saline).
On to `O=C1CN(CN2CCCCC2)C(=O)CN1CN1CCCCC1`, for which the T/C by setting is: under setting [17], 91 % of control; under setting [18], 109 % of control; under setting [19], 95 % of control; under setting [20], 106 % of control; under setting [21], 90 % of control.
With `CC1(C)C2CCC1(CS(=O)(=O)O)C(=O)C2Br.[Ag]` (stereo unspecified), the T/C (dose: 1.56 mg/kg/injection, schedule: Q01DX009 (ip), vehicle: saline) is 101 % of control; the T/C (dose: 3.12 mg/kg/injection, schedule: Q01DX009 (ip), vehicle: saline) was 108 % of control; the T/C (dose: 6.25 mg/kg/injection, schedule: Q01DX009 (ip), vehicle: saline) is 90 % of control; the T/C (dose: 12.5 mg/kg/injection, schedule: Q01DX009 (ip), vehicle: saline with Tween-80) was 93 % of control.
As for `COc1cc(NC(=O)Nc2cc([N+](=O)[O-])ccc2C)c(OC)cc1Cl`, the T/C reads like this: under setting [6], 106 % of control; under setting [7], 97 % of control; under setting [8], 95 % of control.
Regarding `BrCc1ccc(Br)cc1`, the T/C is 96 % of control under setting [22] and 91 % of control under setting [23].
`CC1(C)C=C2OC(=O)CCC2(C)CC1` (stereo unspecified): the T/C was 106 % of control under setting [9]; 109 % of control under setting [1]; 106 % of control under setting [10]; 112 % of control under setting [3]; 96 % of control under setting [11]; 107 % of control under setting [5].
As for `COc1cc2c(cc1OC)C(C(N)=O)NCC2` (stereo unspecified), the T/C is 101 % of control (dose: 100.0 mg/kg/injection, schedule: Q01DX001 (ip), vehicle: other); 97 % of control (dose: 200.0 mg/kg/injection, schedule: Q01DX001 (ip), vehicle: other); 93 % of control (dose: 400.0 mg/kg/injection, schedule: Q01DX001 (ip), vehicle: other).
In the case of `O=C(O)c1cc(I)c(OCc2ccccc2)c(I)c1`, the T/C runs as follows: under setting [22], 100 % of control; under setting [23], 94 % of control; (dose: 400.0 mg/kg/injection, schedule: Q01DX001 (ip), vehicle: carboxymethylcellulose (CMC)) 96 % of control.
In the case of `Cc1ccc(N=Nc2ccc(N(C)C)cc2)c2cccnc12`, the T/C under setting [2] was 113 % of control and the T/C under setting [4] is 95 % of control.
In the case of `CC(=O)Oc1cc(C)c(OC(C)=O)c2ccccc12`, the T/C under setting [17] was 96 % of control; the T/C under setting [18] is 96 % of control; the T/C under setting [19] is 93 % of control; the T/C under setting [20] was 103 % of control; the T/C under setting [21] is 96 % of control.
Take `COc1cc(NS(C)(=O)=O)ccc1N`: the T/C is, setting by setting: under setting [12], 103 % of control; under setting [13], 107 % of control; under setting [14], 98 % of control; under setting [15], 103 % of control; under setting [16], 102 % of control.
On to `O=C(O)c1ccc2c3c(ccc(C(=O)O)c13)CC2`, for which the T/C (dose: 100.0 mg/kg/injection, schedule: Q01DX001 (ip), vehicle: saline) is 104 % of control.
